Counter-ions that a name gives are not always drawn. Like-named read-outs stand apart in the source and are kept apart here.
Experiments:
HER3 = molecular target: T1, HER3 (Homo sapiens, UniProt P21860); assay: HER3/ERBB3 degradation (western blot, OVCAR8 cells); assay type: cell-based
T1 construct: endogenous in cells; host or cells: OVCAR8
Protocol: FIG. 10 illustrates a Western blot of Compound 102-related degradation of ERBB3.
In various embodiments, treatment with PROTAC was performed in one of two ways: 1) For experiments involving >16 h exposure to compound, a 1000× stock was added to cells followed by gentle agitation; 2) For shorter treatments, a 2× stock was added to an equal volume of cells to ensure uniform drug exposure. For immortalized cell lines, 2×10^6 cells per treatment condition were collected and washed once with ice cold PBS (IX), followed by lysis in buffer containing 20 mM Tris [pH 8.0], 0.25% sodium deoxycholate, 1% Triton X-100, supplemented with protease (Roche) and phosphatase inhibitors (10 mM NaF, 2 mM Na3VO4, 10 mM β-glycerophosphate, 10 mM Na-pyrophosphate). Lysates were spun at 15,000×g for 10 min at 4° C. and supernatant was quantified for total protein content using the Pierce BCA Protein Assay (Thermo Fisher Scientific). 30 μg of protein was loaded onto 12% SDS-PAGE gels or 4-15% Mini-PROTEAN TGX precast gradient gels (Bio-Rad), transferred onto nitrocellulose membranes, and probed with the specified primary antibodies overnight with rocking at 4° C. in 1×TBS-T containing 5% non-fat milk.
(§1) Either anti-rabbit or anti-mouse HRP-conjugated secondary antibodies (Pierce) were incubated with the membranes for 1 h at room temperature at 1:10,000 dilutions in 5% non-fat milk in IX TBS-T. Imaging was performed using the ECL Prime chemiluminescent western blot detection reagents (Amersham) followed by visualization with the Bio-Rad ChemiDoc imaging instrument. All western blots were subsequently processed and quantified using the accompanying Bio-Rad Image Lab software. Primary antibodies used were: Anti-actin antibody (Cat. #MA 1-744) purchased from ThermoFisher Scientific; anti-BTK (Cat. #8547), anti-pBTK (Y223, Cat. #5082), anti-ITK (Cat. #2380), anti-GAPDH (Cat. #5179), anti-IKZF1 (Cat. #9034), and anti-IKZF3 (Cat. #15103) antibodies purchased from Cell Signaling Technology. All antibodies were used at 1:1,000 dilutions in 5% non-fat milk in 1×TBS-Tween (TBS-T) or Blotto blocker (Thermo Scientific) unless otherwise noted in supplier specifications.

BTK = BTK (Homo sapiens, UniProt Q06187); assay: BTK degradation in NAMALWA cells (immunoblot); assay type: cell-based; set-up: host or cells: NAMALWA; details: NAMALWA cells; for DC50: concentration needed to degrade 50% of the total pool of BTK
Chain of BTK (Q06187 whole entry): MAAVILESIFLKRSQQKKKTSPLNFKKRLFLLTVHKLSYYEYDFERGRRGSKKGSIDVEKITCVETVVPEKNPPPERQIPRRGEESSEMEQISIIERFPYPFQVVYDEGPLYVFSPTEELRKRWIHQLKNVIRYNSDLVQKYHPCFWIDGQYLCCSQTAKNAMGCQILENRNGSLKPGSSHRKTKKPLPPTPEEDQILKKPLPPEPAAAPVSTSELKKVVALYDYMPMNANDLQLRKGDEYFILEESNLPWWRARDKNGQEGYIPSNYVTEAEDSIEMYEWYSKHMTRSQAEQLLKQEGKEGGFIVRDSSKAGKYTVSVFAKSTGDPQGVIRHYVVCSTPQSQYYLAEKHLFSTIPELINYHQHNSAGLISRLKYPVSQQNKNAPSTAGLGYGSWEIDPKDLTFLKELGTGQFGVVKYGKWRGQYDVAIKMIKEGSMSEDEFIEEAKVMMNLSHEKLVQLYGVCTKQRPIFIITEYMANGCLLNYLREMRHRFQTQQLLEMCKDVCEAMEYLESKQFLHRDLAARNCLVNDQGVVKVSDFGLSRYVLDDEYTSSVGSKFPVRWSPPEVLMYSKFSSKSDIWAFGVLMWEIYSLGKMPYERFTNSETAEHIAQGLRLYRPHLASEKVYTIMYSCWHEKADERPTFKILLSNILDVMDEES
Protocol: NAMALWA and Jurkat cell lines were purchased from ATCC and cultured according to supplier guidelines at 37° C. […] Wild-type and C481S BTK XLA cell lines were cultured as previously described (39). Written, informed consent was obtained prior to the collection of cells from CLL patients using the IWCLL2008 criteria. Isolation of mononuclear cells from peripheral blood was prepared using density gradient centrifugation. B-cells were then negatively selected ([…] Technologies). […] They were maintained at 37° C. in 5% CO2.
Lysates were spun at 15,000×g for 10 min at 4° C. and supernatant was quantified for total protein content using the Pierce BCA Protein Assay (Thermo Fisher Scientific).
as §1, with “Primary antibodies used were: Anti-actin antibody (Cat. #MA 1-744) purchased from ThermoFisher Scientific; anti-BTK (Cat. #8547), anti-pBTK (Y223, Cat. #5082), anti-ITK (Cat. #2380), anti-GAPDH (Cat. #5179), anti-IKZF1 (Cat. #9034), and anti-IKZF3 (Cat. #15103) antibodies purchased from Cell Signaling Technology.” left out

C481S BTK = C481S BTK (Homo sapiens, UniProt Q06187, C481S); assay: In vitro kinase inhibition, recombinant C481S BTK, 10 μM ATP
Chain of C481S BTK (Q06187 whole entry C481S): as the sequence (Q06187 whole entry) above, with C481S counted along it

JAK3 = molecular target: T2, JAK3 (Homo sapiens, UniProt P52333); assay: KINOMEscan competition binding assay, JAK3; details: read-out: KINOMEscan percentage of control, JAK3
T2 construct: purchased DiscoverX (KINOMEscan service)
T2 sequence (P52333 811-1124 limits assumed): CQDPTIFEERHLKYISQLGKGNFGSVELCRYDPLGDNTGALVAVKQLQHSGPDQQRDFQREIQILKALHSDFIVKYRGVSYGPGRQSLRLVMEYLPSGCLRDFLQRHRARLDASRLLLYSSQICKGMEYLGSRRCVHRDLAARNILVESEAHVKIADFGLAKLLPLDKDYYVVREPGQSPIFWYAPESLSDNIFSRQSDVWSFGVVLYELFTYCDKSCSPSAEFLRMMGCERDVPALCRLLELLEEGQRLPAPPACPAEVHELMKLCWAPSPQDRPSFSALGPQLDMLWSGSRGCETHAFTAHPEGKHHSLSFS

BLK = BLK (Homo sapiens, UniProt P51451); assay: KINOMEscan competition binding assay, BLK; details: read-out: KINOMEscan percentage of control, BLK
Chain of BLK (P51451 whole entry): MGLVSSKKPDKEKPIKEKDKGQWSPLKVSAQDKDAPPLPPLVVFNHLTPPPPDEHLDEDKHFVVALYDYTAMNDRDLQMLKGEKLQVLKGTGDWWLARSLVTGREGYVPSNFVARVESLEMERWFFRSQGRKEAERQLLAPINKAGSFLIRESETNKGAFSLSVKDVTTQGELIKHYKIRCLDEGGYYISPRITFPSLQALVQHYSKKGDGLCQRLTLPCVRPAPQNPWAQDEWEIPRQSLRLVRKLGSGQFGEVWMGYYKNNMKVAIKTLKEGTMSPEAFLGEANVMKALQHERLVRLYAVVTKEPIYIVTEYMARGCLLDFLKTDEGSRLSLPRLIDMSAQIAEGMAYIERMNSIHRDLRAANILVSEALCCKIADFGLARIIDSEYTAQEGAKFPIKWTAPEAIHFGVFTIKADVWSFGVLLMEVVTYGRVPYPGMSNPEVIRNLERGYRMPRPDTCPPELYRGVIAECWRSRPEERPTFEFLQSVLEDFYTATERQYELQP

TEC = molecular target: T3, TEC (Homo sapiens, UniProt P42680); assay: KINOMEscan competition binding assay, TEC; details: read-out: KINOMEscan percentage of control, TEC
T3 sequence (P42680 1-631): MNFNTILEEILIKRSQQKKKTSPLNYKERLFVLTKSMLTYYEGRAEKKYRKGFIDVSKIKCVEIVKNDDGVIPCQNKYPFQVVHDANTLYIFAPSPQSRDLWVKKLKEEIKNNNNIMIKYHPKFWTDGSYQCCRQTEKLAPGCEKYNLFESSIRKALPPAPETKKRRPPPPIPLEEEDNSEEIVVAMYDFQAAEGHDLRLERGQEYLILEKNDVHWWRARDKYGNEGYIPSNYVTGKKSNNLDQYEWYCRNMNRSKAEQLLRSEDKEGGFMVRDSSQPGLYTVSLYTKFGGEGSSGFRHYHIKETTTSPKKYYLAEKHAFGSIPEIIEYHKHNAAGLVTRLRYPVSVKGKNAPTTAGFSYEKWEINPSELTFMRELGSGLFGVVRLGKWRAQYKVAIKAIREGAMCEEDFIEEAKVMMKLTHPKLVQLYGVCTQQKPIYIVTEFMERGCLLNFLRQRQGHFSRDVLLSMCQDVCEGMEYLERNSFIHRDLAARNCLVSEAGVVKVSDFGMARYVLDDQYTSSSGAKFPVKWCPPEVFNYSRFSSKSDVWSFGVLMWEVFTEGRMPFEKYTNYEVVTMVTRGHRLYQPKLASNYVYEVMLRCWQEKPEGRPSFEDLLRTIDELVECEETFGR

MKK7 = molecular target: T4, MKK7 (Homo sapiens, UniProt O14733); assay: KINOMEscan competition binding assay, MKK7; details: read-out: KINOMEscan percentage of control, MKK7
T4 construct: purchased DiscoverX (KINOMEscan service)
T4 sequence (O14733 1-419): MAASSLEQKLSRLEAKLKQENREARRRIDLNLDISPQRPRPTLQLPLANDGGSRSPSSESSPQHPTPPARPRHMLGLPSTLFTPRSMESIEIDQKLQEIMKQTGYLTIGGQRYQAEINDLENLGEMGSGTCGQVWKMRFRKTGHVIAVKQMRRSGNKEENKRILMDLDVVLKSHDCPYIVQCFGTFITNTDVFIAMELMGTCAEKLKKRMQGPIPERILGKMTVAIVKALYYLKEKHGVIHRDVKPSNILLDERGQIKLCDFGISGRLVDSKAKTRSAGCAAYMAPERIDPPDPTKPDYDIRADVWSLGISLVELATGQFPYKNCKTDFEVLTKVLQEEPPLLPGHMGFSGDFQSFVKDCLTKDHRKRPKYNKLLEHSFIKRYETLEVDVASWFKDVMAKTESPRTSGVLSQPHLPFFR

ITK = molecular target: T5, ITK (Homo sapiens, UniProt Q08881); assay: KINOMEscan competition binding assay, ITK; set-up: purchased DiscoverX (KINOMEscan service); details: read-out: KINOMEscan percentage of control, ITK
T5 sequence (Q08881 1-620): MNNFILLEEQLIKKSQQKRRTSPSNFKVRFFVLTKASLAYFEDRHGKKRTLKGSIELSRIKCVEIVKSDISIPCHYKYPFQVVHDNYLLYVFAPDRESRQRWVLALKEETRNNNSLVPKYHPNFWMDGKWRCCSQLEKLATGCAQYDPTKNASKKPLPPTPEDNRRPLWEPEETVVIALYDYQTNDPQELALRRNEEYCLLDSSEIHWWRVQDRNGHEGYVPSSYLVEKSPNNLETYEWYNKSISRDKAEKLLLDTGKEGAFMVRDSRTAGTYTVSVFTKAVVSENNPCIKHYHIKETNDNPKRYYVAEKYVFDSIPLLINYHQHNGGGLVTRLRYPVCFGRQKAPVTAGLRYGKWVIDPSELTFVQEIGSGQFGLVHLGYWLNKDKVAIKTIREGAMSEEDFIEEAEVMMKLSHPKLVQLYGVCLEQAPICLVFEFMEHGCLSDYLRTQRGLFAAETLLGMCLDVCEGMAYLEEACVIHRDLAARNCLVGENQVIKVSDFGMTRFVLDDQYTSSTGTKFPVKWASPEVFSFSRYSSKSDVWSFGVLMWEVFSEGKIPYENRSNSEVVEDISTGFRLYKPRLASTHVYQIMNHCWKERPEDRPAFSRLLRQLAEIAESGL

T1 sequence (P21860 20-1342): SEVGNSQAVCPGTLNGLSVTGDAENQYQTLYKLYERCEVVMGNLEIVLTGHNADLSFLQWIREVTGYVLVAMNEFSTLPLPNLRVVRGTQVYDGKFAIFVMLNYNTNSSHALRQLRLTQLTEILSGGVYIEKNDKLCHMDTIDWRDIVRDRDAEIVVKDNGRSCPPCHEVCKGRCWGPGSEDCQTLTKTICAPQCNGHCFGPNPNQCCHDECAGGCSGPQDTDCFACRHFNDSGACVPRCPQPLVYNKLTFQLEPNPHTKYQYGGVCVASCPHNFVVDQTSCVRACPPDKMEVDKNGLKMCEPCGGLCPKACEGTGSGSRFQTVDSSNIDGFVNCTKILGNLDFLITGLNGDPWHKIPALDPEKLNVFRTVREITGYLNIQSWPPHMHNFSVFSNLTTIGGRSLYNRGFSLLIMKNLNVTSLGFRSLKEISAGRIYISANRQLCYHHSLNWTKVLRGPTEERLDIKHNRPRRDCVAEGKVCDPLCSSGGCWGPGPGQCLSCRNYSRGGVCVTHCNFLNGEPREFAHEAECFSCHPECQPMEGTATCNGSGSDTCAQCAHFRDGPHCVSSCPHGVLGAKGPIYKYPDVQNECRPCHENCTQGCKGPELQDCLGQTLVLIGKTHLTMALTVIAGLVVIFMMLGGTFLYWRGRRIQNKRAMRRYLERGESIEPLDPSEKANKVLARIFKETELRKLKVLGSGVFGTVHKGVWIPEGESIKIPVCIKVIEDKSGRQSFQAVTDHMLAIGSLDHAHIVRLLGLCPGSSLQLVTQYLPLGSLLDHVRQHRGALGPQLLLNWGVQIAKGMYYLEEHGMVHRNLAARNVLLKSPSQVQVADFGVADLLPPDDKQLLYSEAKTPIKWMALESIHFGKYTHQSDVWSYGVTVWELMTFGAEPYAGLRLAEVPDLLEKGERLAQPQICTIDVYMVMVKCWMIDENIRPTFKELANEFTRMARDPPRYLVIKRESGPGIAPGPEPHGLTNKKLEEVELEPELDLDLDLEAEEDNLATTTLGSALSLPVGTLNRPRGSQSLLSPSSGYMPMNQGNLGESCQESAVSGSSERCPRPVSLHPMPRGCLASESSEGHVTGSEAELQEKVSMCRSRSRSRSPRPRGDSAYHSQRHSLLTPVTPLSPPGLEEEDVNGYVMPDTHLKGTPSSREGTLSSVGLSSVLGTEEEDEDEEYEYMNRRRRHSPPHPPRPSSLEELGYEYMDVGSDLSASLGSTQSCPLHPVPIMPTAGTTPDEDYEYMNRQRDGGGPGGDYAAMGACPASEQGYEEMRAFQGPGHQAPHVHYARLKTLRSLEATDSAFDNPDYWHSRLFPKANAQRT

| Structure (SMILES) | HER3 Degradation (HER3) | DC50 (BTK) | also measured |
| --- | --- | --- | --- |
| Cc1ncsc1-c1ccc(CNC(=O)[C@@H]2C[C@@H](O)CN2C(=O)[C@@H](NC(=O)COCCOCCOCCOCCOCCCCCCN2CCC(n3nc(-c4ccc(Oc5ccccc5)cc4)c4c(N)ncnc43)CC2)C(C)(C)C)cc1 [Compound 118, (2S,4R)-1-((S)-25-(4-(4-amino-3-(4-phenoxyphenyl)-1H-pyrazolo[3,4-d]pyrimidin-1-yl)piperidin-1-yl)-2,2-dimethyl-5-oxo-7,10,13,16,19-pentaoxa-4-azapentacosanecarbonyl)-4-hydroxy-N-(4-(4-methylthiazol-5-yl)benzyl)pyrrolidine-2-carboxamide] | No | – | DC50 (BTK; read-out: DC50): 0.231 µM; Max (BTK; maximal BTK degradation, at 1.0 μM): 40% |
| C=CC(=O)Nc1cc(-c2nn(C3CCN(CCCCOCCCCOCC(=O)Nc4cccc5c4C(=O)N(C4CCC(=O)NC4=O)C5=O)CC3)c3ncnc(N)c23)ccc1Oc1ccccc1 (centres unmarked) [Compound 122, N-(5-(4-amino-1-(1-(4-(4-(2-(2-(2,6-dioxopiperidin-3-yl)-1,3-dioxoisoindolin-4-ylamino)-2-oxoethoxy)butoxy)butyl)piperidin-4-yl)-1H-pyrazolo[3,4-d]pyrimidin-3-yl)-2-phenoxyphenyl)acrylamide] | No | No Degradation | – |
| Nc1ncnc2c1c(-c1ccc(Oc3ccccc3)cc1)nn2C1CCNCC1 [compound 1, 3-(4-phenoxyphenyl)-1-(piperidin-4-yl)-1H-pyrazolo[3,4-d]pyrimidin-4-amine hydrochloride, reference compound] | – | – | inhibition potency against C481S mutant BTK (C481S BTK): retained inhibition potency |
| C=CC(=O)N1CCC[C@@H](n2nc(-c3ccc(Oc4ccccc4)cc3)c3c(N)ncnc32)C1 [ibrutinib, reference compound] | – | – | remaining binding at 1 µM (JAK3): < 10%; remaining binding at 1 µM (BLK): 0.1%; remaining binding at 1 µM (TEC): 1.9%; remaining binding at 1 µM (MKK7): < 10%; remaining binding at 1 µM (ITK): < 10% |

Second part, led by results:

| HER3 Degradation (HER3) | DC50 (BTK) | Structure (SMILES) | also measured |
| --- | --- | --- | --- |
| No | No Degradation | Cc1ncsc1-c1ccc(CNC(=O)[C@@H]2C[C@@H](O)CN2C(=O)[C@@H](NC(=O)CCCCCOCCOCCOCCOCCCCCCN2CCC(n3nc(-c4ccc(Oc5ccccc5)cc4)c4c(N)ncnc43)CC2)C(C)(C)C)cc1 [Compound 119, (2S,4R)-1-((S)-26-(4-(4-amino-3-(4-phenoxyphenyl)-1H-pyrazolo[3,4-d]pyrimidin-1-yl)piperidin-1-yl)-2,2-dimethyl-5-oxo-11,14,17,20-tetraoxa-4-azahexacosanecarbonyl)-4-hydroxy-N-(4-(4-methylthiazol-5-yl)benzyl)pyrrolidine-2-carboxamide] | – |
| No | No Degradation | Cc1ncsc1-c1ccc(CNC(=O)[C@@H]2C[C@@H](O)CN2C(=O)[C@@H](NC(=O)CCCCCOCCOCCOCCOCCOCCCCCCN2CCC(n3nc(-c4ccc(Oc5ccccc5)cc4)c4c(N)ncnc43)CC2)C(C)(C)C)cc1 [Compound 120, (2S,4R)-1-((S)-29-(4-(4-amino-3-(4-phenoxyphenyl)-1H-pyrazolo[3,4-d]pyrimidin-1-yl)piperidin-1-yl)-2,2-dimethyl-5-oxo-11,14,17,20,23-pentaoxa-4-azanonacosanecarbonyl)-4-hydroxy-N-(4-(4-methylthiazol-5-yl)benzyl)pyrrolidine-2-carboxamide] | – |
| No | No Degradation | C=CC(=O)Nc1cc(-c2nn(C3CCN(CCCOCCCOCCC(=O)Nc4cccc5c4C(=O)N(C4CCC(=O)NC4=O)C5=O)CC3)c3ncnc(N)c23)ccc1Oc1ccccc1 (centres unmarked) [Compound 121, N-(5-(4-amino-1-(1-(3-(3-(3-(2-(2,6-dioxopiperidin-3-yl)-1,3-dioxoisoindolin-4-ylamino)-3-oxopropoxy)propoxy)propyl)piperidin-4-yl)-1H-pyrazolo[3,4-d]pyrimidin-3-yl)-2-phenoxyphenyl)acrylamide] | – |
